Results reported in ChEMBL document CHEMBL1151027, “Inhibition of human immunodeficiency virus-1 protease by a C2-symmetrical phosphinic acid amide” (Bioorg Med Chem Lett, 1994).

Tests used:
[1] = biological target: Human immunodeficiency virus type 1 protease (Human immunodeficiency virus 1, UniProt Q72874); experiment: Inhibitory activity if the compound was determined against HIV protease
[2] = (§1) Effective concentration required to inhibit HIV replication in peripheral blood mononuclear cells (PBL); assay type: functional, Homo sapiens
[3] = as §1; assay type: functional; settings: Homo sapiens

SMILES | IC50 [1] | EC50 ([2]; Homo sapiens) | EC50 [2] | EC50 [3]
CC(C)[C@H](NC(=O)[C@H](Cc1cccc2ccccc12)CS(=O)(=O)C(C)(C)C)C(=O)NCP(N)(=O)CNC(=O)[C@@H](NC(=O)[C@H](Cc1cccc2ccccc12)CS(=O)(=O)C(C)(C)C)C(C)C | 5.5 nM | > 10000 nM | – | –
CC(C)[C@H](NC(=O)[C@H](Cc1cccc2ccccc12)CS(=O)(=O)C(C)(C)C)C(=O)NCP(=O)(CNC(=O)[C@@H](NC(=O)[C@H](Cc1cccc2ccccc12)CS(=O)(=O)C(C)(C)C)C(C)C)NN | 8.5 nM | > 10000 nM | – | –
COP(=O)(CNC(=O)[C@@H](NC(=O)[C@H](Cc1cccc2ccccc12)CS(=O)(=O)C(C)(C)C)C(C)C)CNC(=O)[C@@H](NC(=O)[C@H](Cc1cccc2ccccc12)CS(=O)(=O)C(C)(C)C)C(C)C | 950 nM | > 10000 nM | – | –
CC(C)[C@H](NC(=O)[C@H](Cc1cccc2ccccc12)CS(=O)(=O)C(C)(C)C)C(=O)NCP(=O)(O)CNC(=O)[C@@H](NC(=O)[C@H](Cc1cccc2ccccc12)CS(=O)(=O)C(C)(C)C)C(C)C | 1.1 nM | > 10000 nM | – | –
CC(C)[C@H](NC(=O)[C@H](Cc1cccc2ccccc12)CS(=O)(=O)C(C)(C)C)C(=O)N[C@H](Cc1ccccc1)P(=O)(O)[C@@H](Cc1ccccc1)NC(=O)[C@@H](NC(=O)[C@H](Cc1cccc2ccccc12)CS(=O)(=O)C(C)(C)C)C(C)C | 85 nM | > 10000 nM | – | –
CC(C)[C@H](NC(=O)[C@H](Cc1cccc2ccccc12)CS(=O)(=O)C(C)(C)C)C(=O)N[C@H](Cc1ccccc1)P(N)(=O)[C@@H](Cc1ccccc1)NC(=O)[C@@H](NC(=O)[C@H](Cc1cccc2ccccc12)CS(=O)(=O)C(C)(C)C)C(C)C | 1 nM | – | 100 nM | –
CC(C)[C@H](NC(=O)[C@H](Cc1cccc2ccccc12)CS(=O)(=O)C(C)(C)C)C(=O)NC(Cc1ccccc1)P(=O)(O)C(Cc1ccccc1)NC(=O)[C@@H](NC(=O)[C@H](Cc1cccc2ccccc12)CS(=O)(=O)C(C)(C)C)C(C)C (single isomer, unassigned) | 0.5 nM | – | – | > 10000 nM
CC(C)[C@H](NC(=O)[C@H](Cc1cccc2ccccc12)CS(=O)(=O)C(C)(C)C)C(=O)NC(Cc1ccccc1)P(N)(=O)C(Cc1ccccc1)NC(=O)[C@@H](NC(=O)[C@H](Cc1cccc2ccccc12)CS(=O)(=O)C(C)(C)C)C(C)C (single isomer, unassigned) | 250 nM | – | > 10000 nM | –
